Assay results reported in PubChem BioAssay (NCI).
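A five-concentration, 48-hour dose response in 96-well plates underlies each endpoint, interpolated linearly between surrounding concentrations. TGI denotes the concentration required for complete inhibition of growth.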

Columns and labels:
Test in all cases: inhibition of tumour cell growth, NCI panel, 48 h
U251 CNS = tested on: U251 CNS
OVCAR-4 ovarian = tested on: OVCAR-4 ovarian
786-0 renal = tested on: 786-0 renal
HS 578T breast = tested on: HS 578T breast
A549 NSCLC = tested on: A549 NSCLC
PC-3 prostate = tested on: PC-3 prostate
K-562 leukemia = tested on: K-562 leukemia
COLO 205 colon = tested on: COLO 205 colon
TK-10 renal = tested on: TK-10 renal
SK-MEL-28 melanoma = tested on: SK-MEL-28 melanoma
ACHN renal = tested on: ACHN renal
EKVX NSCLC = tested on: EKVX NSCLC
SN12C renal = tested on: SN12C renal
SF-268 CNS = tested on: SF-268 CNS
CCRF-CEM leukemia = tested on: CCRF-CEM leukemia
BT-549 breast = tested on: BT-549 breast
MDA-N = tested on: MDA-N
HOP-62 NSCLC = tested on: HOP-62 NSCLC
MALME-3M melanoma = tested on: MALME-3M melanoma
MDA-MB-231 breast = tested on: MDA-MB-231 breast
RXF 393 renal = tested on: RXF 393 renal
SR leukemia = tested on: SR leukemia
M14 melanoma = tested on: M14 melanoma
SK-MEL-2 melanoma = tested on: SK-MEL-2 melanoma
KM12 colon = tested on: KM12 colon
SW-620 colon = tested on: SW-620 colon
SNB-19 CNS = tested on: SNB-19 CNS
OVCAR-8 ovarian = tested on: OVCAR-8 ovarian
NCI-H226 lung = tested on: NCI-H226 lung
NCI-H23 lung = tested on: NCI-H23 lung
SK-MEL-5 melanoma = tested on: SK-MEL-5 melanoma
HL-60(TB) leukemia = tested on: HL-60(TB) leukemia
OVCAR-3 ovarian = tested on: OVCAR-3 ovarian
MCF7 breast = tested on: MCF7 breast
DU-145 prostate = tested on: DU-145 prostate
HOP-92 NSCLC = tested on: HOP-92 NSCLC
UACC-257 melanoma = tested on: UACC-257 melanoma
T-47D breast = tested on: T-47D breast
IGROV1 ovarian = tested on: IGROV1 ovarian
HT29 colon = tested on: HT29 colon
NCI/ADR-RES ovarian = tested on: NCI/ADR-RES ovarian
NCI-H460 lung = tested on: NCI-H460 lung
LOX IMVI melanoma = tested on: LOX IMVI melanoma
SF-539 CNS = tested on: SF-539 CNS
SF-295 CNS = tested on: SF-295 CNS
MDA-MB-435 = tested on: MDA-MB-435
SK-OV-3 ovarian = tested on: SK-OV-3 ovarian
HCC-2998 colon = tested on: HCC-2998 colon
HCT-116 colon = tested on: HCT-116 colon
CAKI-1 renal = tested on: CAKI-1 renal
SNB-75 CNS = tested on: SNB-75 CNS
OVCAR-5 ovarian = tested on: OVCAR-5 ovarian
RPMI-8226 leukemia = tested on: RPMI-8226 leukemia
UO-31 renal = tested on: UO-31 renal
HCT-15 colon = tested on: HCT-15 colon
MOLT-4 leukemia = tested on: MOLT-4 leukemia
UACC-62 melanoma = tested on: UACC-62 melanoma
A498 renal = tested on: A498 renal
NCI-H522 lung = tested on: NCI-H522 lung

Structure (SMILES): CC1(C)C(=O)C2(OS(=O)(=O)C(F)(F)F)CCC1C2 (configuration not stated)
- TGI (U251 CNS): > 100 µM
- TGI (OVCAR-4 ovarian): > 100 µM
- TGI (786-0 renal): > 100 µM
- TGI (HS 578T breast): > 100 µM
- TGI (A549 NSCLC): > 100 µM
- TGI (PC-3 prostate): > 100 µM
- TGI (K-562 leukemia): > 100 µM
- TGI (COLO 205 colon): > 100 µM
- TGI (TK-10 renal): > 100 µM
- TGI (SK-MEL-28 melanoma): > 100 µM
- TGI (ACHN renal): > 100 µM
- TGI (EKVX NSCLC): > 100 µM
- TGI (SN12C renal): > 100 µM
- TGI (SF-268 CNS): > 100 µM
- TGI (CCRF-CEM leukemia): > 100 µM
- TGI (BT-549 breast): > 100 µM
- TGI (MDA-N): > 100 µM
- TGI (HOP-62 NSCLC): > 100 µM
- TGI (MALME-3M melanoma): > 100 µM
- TGI (MDA-MB-231 breast): > 100 µM
- TGI (RXF 393 renal): > 100 µM
- TGI (SR leukemia): > 100 µM
- TGI (M14 melanoma): > 100 µM
- TGI (SK-MEL-2 melanoma): > 100 µM
- TGI (KM12 colon): > 100 µM
- TGI (SW-620 colon): > 100 µM
- TGI (SNB-19 CNS): > 100 µM
- TGI (OVCAR-8 ovarian): > 100 µM
- TGI (NCI-H226 lung): > 100 µM
- TGI (NCI-H23 lung): > 100 µM
- TGI (SK-MEL-5 melanoma): > 100 µM
- TGI (HL-60(TB) leukemia): > 100 µM
- TGI (OVCAR-3 ovarian): > 100 µM
- TGI (MCF7 breast): > 100 µM
- TGI (DU-145 prostate): > 100 µM
- TGI (HOP-92 NSCLC): > 100 µM
- TGI (UACC-257 melanoma): > 100 µM
- TGI (T-47D breast): > 100 µM
- TGI (IGROV1 ovarian): > 100 µM
- TGI (HT29 colon): > 100 µM
- TGI (NCI/ADR-RES ovarian): > 100 µM
- TGI (NCI-H460 lung): > 100 µM
- TGI (LOX IMVI melanoma): > 100 µM
- TGI (SF-539 CNS): > 100 µM
- TGI (SF-295 CNS): > 100 µM
- TGI (MDA-MB-435): > 100 µM
- TGI (SK-OV-3 ovarian): > 100 µM
- TGI (HCC-2998 colon): > 100 µM
- TGI (HCT-116 colon): > 100 µM
- TGI (CAKI-1 renal): > 100 µM
- TGI (SNB-75 CNS): > 100 µM
- TGI (OVCAR-5 ovarian): > 100 µM
- TGI (RPMI-8226 leukemia): > 100 µM
- TGI (UO-31 renal): > 100 µM
- TGI (HCT-15 colon): > 100 µM
- TGI (MOLT-4 leukemia): > 100 µM
- TGI (UACC-62 melanoma): > 100 µM
- TGI (A498 renal): > 100 µM

Structure (SMILES): O=C(CN1CCOCC1)CC(O)(C(F)(F)F)C(F)(F)F
- TGI (U251 CNS): > 100 µM
- TGI (OVCAR-4 ovarian): > 100 µM
- TGI (786-0 renal): > 100 µM
- TGI (HS 578T breast): > 100 µM
- TGI (A549 NSCLC): > 100 µM
- TGI (NCI-H522 lung): > 100 µM
- TGI (PC-3 prostate): 99.8 µM
- TGI (K-562 leukemia): > 100 µM
- TGI (COLO 205 colon): > 100 µM
- TGI (TK-10 renal): > 100 µM
- TGI (SK-MEL-28 melanoma): > 100 µM
- TGI (ACHN renal): > 100 µM
- TGI (EKVX NSCLC): > 100 µM
- TGI (CCRF-CEM leukemia): > 100 µM
- TGI (BT-549 breast): > 100 µM
- TGI (MDA-N): > 100 µM
- TGI (MALME-3M melanoma): > 100 µM
- TGI (MDA-MB-231 breast): > 100 µM
- TGI (RXF 393 renal): > 100 µM
- TGI (SR leukemia): > 100 µM
- TGI (M14 melanoma): > 100 µM
- TGI (SK-MEL-2 melanoma): > 100 µM
- TGI (KM12 colon): > 100 µM
- TGI (SW-620 colon): > 100 µM
- TGI (SNB-19 CNS): > 100 µM
- TGI (OVCAR-8 ovarian): > 100 µM
- TGI (NCI-H226 lung): > 100 µM
- TGI (NCI-H23 lung): > 100 µM
- TGI (SK-MEL-5 melanoma): > 100 µM
- TGI (HL-60(TB) leukemia): > 100 µM
- TGI (OVCAR-3 ovarian): > 100 µM
- TGI (MCF7 breast): > 100 µM
- TGI (DU-145 prostate): > 100 µM
- TGI (HOP-92 NSCLC): 97.2 µM
- TGI (UACC-257 melanoma): > 100 µM
- TGI (T-47D breast): > 100 µM
- TGI (IGROV1 ovarian): > 100 µM
- TGI (NCI/ADR-RES ovarian): > 100 µM
- TGI (LOX IMVI melanoma): > 100 µM
- TGI (SF-539 CNS): > 100 µM
- TGI (SF-295 CNS): > 100 µM
- TGI (MDA-MB-435): > 100 µM
- TGI (SK-OV-3 ovarian): > 100 µM
- TGI (HCC-2998 colon): > 100 µM
- TGI (HCT-116 colon): > 100 µM
- TGI (CAKI-1 renal): > 100 µM
- TGI (SNB-75 CNS): > 100 µM
- TGI (OVCAR-5 ovarian): > 100 µM
- TGI (RPMI-8226 leukemia): > 100 µM
- TGI (UO-31 renal): > 100 µM
- TGI (HCT-15 colon): > 100 µM
- TGI (MOLT-4 leukemia): > 100 µM
- TGI (UACC-62 melanoma): > 100 µM
- TGI (A498 renal): > 100 µM
